Measurements as given in patent publication US20140045860A1, “SMALL MOLECULE INHIBITORS FOR TREATING PARASITIC INFECTIONS” (NEW YORK UNIVERSITY, priority 2011, published 2014).
Several values for one entry are separate records, joined by “and”; a condition that tells them apart may be missing. Equal values may be shown once. Read-outs that look alike come from different tables or passages of the source.

How the values were obtained:
Format in all cases: cell-based
T. cruzi [1] = assay: T. cruzi inhibition assay (beta-galactosidase T. cruzi co-cultured with NIH/3T3 host cells); settings: Trypanosoma cruzi, NIH3T3; Table 2
Method: (§1) A high-throughput screen of small molecules was performed in duplicate in the recombinant Tulahuen strain of T. cruzi stably expressing a beta-galactosidase reporter gene. Trypomastogote-stage parasites were co-cultured with mouse fibroblast NIH/3T3 host cells, (Buckner F S, Verlinde C L, La Flamme A C, Van Voorhis W C. Efficient technique for screening drugs for activity against Trypanosoma cruzi using parasites expressing beta-galactosidase. Antimicrob Agents Chemother. 1996; 40(11): 2592-2597). Signal was normalized to neutral (DMSO) controls, and a 75% inhibition cutoff was used to define a hit. Compounds initially designated as hits were retested in dose in the primary assay to confirm their inhibitory activity. In parallel, compounds were tested in toxicity assays against NIH/3T3 host cells to determine if these compounds were cytotoxic to mammalian cells and thus, false positives. Compounds that reduced the viability of NIH/3T3 cells were excluded as viable hits. A subset of hits were then tested in a similar infection assay with the Tulahuen strain of T. cruzi infecting murine L-6 cells and the intracellular T. cruzi immunofluorescence assay described below.
1. T. cruzi Inhibition Assay
98% DMEM, Phenol Red, 2% FBS, and 1% PSG were mixed and filtered through a 0.2 microns membrane. The cells were kept at 4° C., then warmed up to 37° C. in a water bath before use.
Gal-Screen. Using a Gal-Screen base kit, Buffer B (Catalog no. T2361) was mixed with 1:25 substrate (Catalog no. T2359).
NIH/3T3 cells were cultivated in DMEM supplemented with 10% FBS and 1% PSG in T175 in 50 mL total of medium.
Parasite Culture: T. cruzi β-gal (Tc): T. cruzi β-gal were cultivated in DMEM supplemented with 2% FBS and 1% PSG in T175 flasks with vented caps in 50 mL total of medium.
2. Growth Inhibition Assay for HTS (384-Well Plates)
The medium was warmed up with 2% FBS/DMEM. The parasites were harvested in 50-mL tubes, and spun for 10 minutes at 2200 rpm. Approximately 15 mL of media was aspirated, and the samples were incubated for 3-5 h. The NIH/3T3 cells were trypsinized (refer to cell culture protocol). When the NIH/3T3 cells were detached, the cells were harvested in DMEM, 2% FBS, and 1% PSG, then counted using the Nexcelom cellometer. The cells were diluted to 166,667 cells/mL, then added to a flask and plated 5,000 cells/30 μL per well using a standard cassette multiwall drob Combi. The cells were incubated for 3 h, then T. cruzi cells were counted, diluted to 0.166 million cells/mL, and transferred to a 2-liter flask. Then, […] compounds/DMSO were pinned to each well with NIH/3T3 cells. Next, 30 μL/well of parasites (5000 T. cruzi) were added with a standard cassette multiwall drop Combi on slow speed, and incubated for 4 days (or a minimum of 90 h). Gal-Screen was prepared, 30 μL per well were dispensed in a 384-well plate, incubated for 60 minutes, and the luminescence was read using Envision (Perkin-Elmer) at 0.1 sec/well.

T. b. rhod. = assay: In vitro counter screen, T. b. rhod.
Method: (§2) In vitro counter screens were performed to confirm our findings.

T. cruzi [2] = assay: In vitro counter screen, T. cruzi; settings: Trypanosoma cruzi
Method: as §1, §2

L. don. axen. = assay: In vitro counter screen, L. don. axen.
Method: as §2

P. falc. K1 = assay: In vitro counter screen, P. falc. K1
Method: as §2

[3] = In vitro counter screen, cytotoxicity L6; settings: murine
[4] = read-out: T. b. rhod. (IC50, ug/mL)
[5] = same result as ug/mL, in uM, read-out: T. b. rhod (IC50 uM)
[6] = read-out: T. cruzi IC50 (ug/mL)
[7] = same result as ug/mL, in uM, read-out: L. don. Axen (IC50 uM)
[8] = same result as ug/mL, in uM, read-out: P. falc. K1 (IC50 uM)

Question: For `C[C@@H]1CN([C@@H](C)CO)C(=O)c2cc(-c3ccncc3)cnc2O[C@H]1CN(C)Cc1ccc(Oc2ccccc2)cc1` [Compound 31], which IC50 (T. cruzi [1]) is on record?
Answer: The IC50 was 1.28 µM.

Question: With `C[C@@H]1CN([C@@H](C)CO)C(=O)c2cccc(NC(=O)c3ccncc3)c2O[C@H]1CN(C)C` [Compound 23] as the compound, how does the IC50 (T. cruzi [1]) read?
Answer: Its IC50 is > 10 µM.

Question: Which IC50 (T. b. rhod.; [4]) does the source give for `C[C@H](CO)N1C[C@H](C)[C@H](CN(C)Cc2ccccc2)Oc2c(NC(=O)c3ccncc3)cccc2C1=O` [Compound 1] here?
Answer: The IC50 was 75.4 µg/mL.

Question: What about the IC50 (T. b. rhod.; [5]) of the same compound?
Answer: The IC50 was 150 µM.

Question: What about the IC50 (T. cruzi [2]; read-out: T. cruzi (IC50 uM)) of the same compound?
Answer: The IC50 was 1.24 µM.

Question: And the IC50 (T. cruzi [2]; [6])?
Answer: The IC50 was 0.622 µg/mL.

Question: And the IC50 (L. don. axen.; read-out: L. don. axen. IC50)?
Answer: The IC50 was > 100 µg/mL.

Question: What about the IC50 (L. don. axen.; [7]) of the same compound?
Answer: Its IC50 is > 199 µM.

Question: And the IC50 (P. falc. K1; read-out: P. falc. K1 IC50)?
Answer: Its IC50 is 20.6 µg/mL.

Question: What about the IC50 (P. falc. K1; [8]) of the same compound?
Answer: The IC50 was 41 µM.

Question: What about the IC50 [3] of the same compound?
Answer: The IC50 was > 199 µM and > 100 µg/mL.

Question: Which results are given for `C[C@H]1CN([C@@H](C)CO)C(=O)c2cccc(NC(=O)c3ccncc3)c2O[C@H]1CN(C)Cc1ccc(-c2ccccc2)cc1` [Compound 20]?
Answer: IC50 (T. b. rhod.; [4]): 6.41 µg/mL; IC50 (T. b. rhod.; [5]): 11.1 µM; IC50 (T. cruzi [2]; read-out: T. cruzi (IC50 uM)): 0.394 µM; IC50 (T. cruzi [2]; [6]): 0.228 µg/mL; IC50 (L. don. axen.; read-out: L. don. axen. IC50): 6.47 µg/mL; IC50 (L. don. axen.; [7]): 11.2 µM; IC50 (P. falc. K1; read-out: P. falc. K1 IC50): 1.14 µg/mL; IC50 (P. falc. K1; [8]): 1.97 µM; IC50 [3]: 30.2 µM and 17.5 µg/mL

Question: Which IC50 (T. cruzi [1]) does the source give for `C[C@@H]1CN([C@@H](C)CO)C(=O)c2cccc(NC(=O)c3cnccn3)c2O[C@H]1CN(C)Cc1ccc(Oc2ccccc2)cc1` [Compound 38] here?
Answer: The IC50 was 1 µM.

Question: For `C[C@@H](CO)N1CC[C@H](CN(C)Cc2cccc(Cl)c2)Oc2c(NC(=O)c3ccncc3)cccc2C1=O` [Compound 22], which IC50 (T. cruzi [1]) is on record?
Answer: The IC50 was < 0.0026 µM.

Question: For `CC(C)N1C[C@@H](C)[C@H](CN(C)Cc2ccc(Oc3ccccc3)cc2)Oc2c(NC(=O)c3ccncc3)cccc2C1=O` [Compound 34], which IC50 (T. cruzi [1]) is on record?
Answer: The IC50 was < 0.0026 µM.

Question: With `C[C@@H]1CN([C@@H](C)CO)C(=O)c2cccc(NC(=O)c3ccncc3)c2O[C@H]1CN(C)Cc1ccc(Cl)cc1` [Compound 30] as the compound, how does the IC50 (T. cruzi [1]) read?
Answer: The IC50 was < 0.0026 µM.

Question: With `Cc1cc(C(=O)Nc2cccc3c2O[C@@H](CN(C)Cc2ccc(Oc4ccccc4)cc2)[C@H](C)CN([C@@H](C)CO)C3=O)n(C)n1` [Compound 35] as the compound, how does the IC50 (T. cruzi [1]) read?
Answer: Its IC50 is > 10 µM.

Question: For `C[C@@H]1CN([C@H](C)CO)C(=O)c2cccc(NC(=O)c3ccncc3)c2O[C@H]1CN(C)Cc1ccccc1` [Compound 37], which IC50 (T. cruzi [1]) is on record?
Answer: Its IC50 is 0.0153 µM.

Question: For `C[C@H]1CN([C@@H](C)CO)C(=O)c2cccc(NC(=O)c3ccncc3)c2O[C@@H]1CN(C)Cc1ccc(Oc2ccccc2)cc1` [Compound 40], which IC50 (T. cruzi [1]) is on record?
Answer: Its IC50 is < 0.0026 µM.

Question: With `C[C@@H]1CN([C@H](C)CO)C(=O)c2cccc(NC(=O)c3ccncc3)c2O[C@H]1CN(C)Cc1ccc2c(c1)OCO2` [Compound 8] as the compound, how does the IC50 (T. b. rhod.; [5]) read?
Answer: The IC50 was 12.5 µM.

Question: What about the IC50 (T. cruzi [2]; read-out: T. cruzi (IC50 uM)) of the same compound?
Answer: The IC50 was 0.143 µM.

Question: And the IC50 (L. don. axen.; read-out: L. don. Axen (IC50 uM))?
Answer: Its IC50 is > 183 µM.

Question: What about the IC50 (P. falc. K1; [8]) of the same compound?
Answer: Its IC50 is 10.6 µM.

Question: What about the IC50 ([3]; L6 cells, same result as ug/mL, in uM, read-out: cytotox, (IC50 uM)) of the same compound?
Answer: The IC50 was > 183 µM.

Question: For `COc1ccc(CN(C)C[C@@H]2Oc3c(NC(=O)c4ccncc4)cccc3C(=O)N([C@@H](C)CO)C[C@H]2C)cc1` [Compound 39], which IC50 (T. cruzi [1]) is on record?
Answer: The IC50 was 0.011 µM.

Question: For `C[C@@H]1CN([C@@H](C)CO)C(=O)c2cccc(NC(=O)c3ccncc3)c2O[C@H]1CN(C)Cc1ccccc1Cl` [Compound 26], which IC50 (T. cruzi [1]) is on record?
Answer: Its IC50 is 0.0039 µM.

Question: For `C[C@@H]1CN([C@@H](C)CO)C(=O)c2cccc(NC(=O)c3ccncc3)c2O[C@H]1CN(C)CC1CCCCC1` [Compound 42], which IC50 (T. cruzi [1]) is on record?
Answer: Its IC50 is 0.0421 µM.

Question: For `C[C@@H]1CN([C@@H](C)CO)C(=O)c2cc(-c3cncnc3)cnc2O[C@H]1CN(C)Cc1ccc(Oc2ccccc2)cc1` [Compound 33], which IC50 (T. cruzi [1]) is on record?
Answer: The IC50 was > 10 µM.
